Consider 15 molecules from patent US10723741B1, “DNA polymerase IIIC inhibitors and use thereof” (Acurx Pharmaceuticals, LLC, priority 2018, dated 2020).

Common to all, as to assay type: cell-based
Assay [1] relates to Enterococcus faecium ATCC 700221 (VRE). The assay can be described thus: Broth microdilution MIC, E. faecium ATCC 700221 (VRE). Further details: MIC E. faecium ATCC 700221 (VRE): unit: ug/mL. The conditions noted are these: broth microdilution, 37° C., 20 hours; for MIC: Enterococcus faecium, read-out: MIC E. faecium ATCC 700221 (VRE). An outline of the steps: (§1)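 Broth microdilution in strain-specific test medium with ~5.0×10^5 cfu/ml inoculum, 1% DMSO and two-fold compound dilutions from 64 to 0.0625 μg/ml. Plates were held 20 hours at 37° C in ambient air. S. pneumoniae colonies were grown beforehand on blood agar in 5% CO2.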
For orientation: Broth dilution looks for growth in wells or tubes with falling amounts of substance.

Assay [2] relates to Bacillus subtilis ATCC 6633. In words: Broth microdilution MIC, B. subtilis ATCC 6633. The conditions noted are these: ATCC6633, broth microdilution, 37° C., 20 hours, read-out: MIC B. subtilis ATCC 6633. In short, it runs like this: as §1
The test system of assay [3] is Staphylococcus aureus ATCC 29213 (MSSA). In words: Broth microdilution MIC, S. aureus ATCC 29213 (MSSA). The conditions noted are these: broth microdilution, 37° C., 20 hours, read-out: MIC S. aureus ATCC 29213 (MSSA). In short, it runs like this: as §1
In assay [4] the test system is Escherichia coli ATCC 25922. In words: Broth microdilution MIC, E. coli ATCC 25922 (MHIIB w & w/o 4 mM EDTA). The conditions noted are these: broth microdilution, 37° C., 20 hours; for MIC: Escherichia coli, ATCC25922, without EDTA, read-out: MIC E. coli ATCC 25922; for MIC E. coli ATCC 25922 + 4 mM EDTA: with 4 mM EDTA. An outline of the steps:
as §1

Assay [5] concerns Staphylococcus aureus NRS384 (MRSA). The assay can be described thus: Broth microdilution MIC, S. aureus NRS384 (MRSA). Further details: MIC NRS 384 (MRSA): unit not given here. The conditions noted are these: broth microdilution, 37° C., 20 hours; for MIC: Staphylococcus aureus, read-out: MIC NRS 384 (MRSA). An outline of the steps:
as §1

In assay [6] the test system is Streptococcus pneumoniae ATCC 49619. In words: Broth microdilution MIC, S. pneumoniae ATCC 49619. To be noted: ATCC49619, broth microdilution, 37° C., 20 hours, read-out: MIC S. pneumoniae ATCC 49619. In short, it runs like this: as §1
Assay [7] concerns Enterococcus faecalis ATCC 29212. In words: Broth microdilution MIC, E. faecalis ATCC 29212. To be noted: ATCC29212, broth microdilution, 37° C., 20 hours, read-out: MIC E. faecalis ATCC 29212. An outline of the steps:
as §1

Converted amounts (≈) assume the structure as drawn. Like-named read-outs stand apart in the source and are kept apart here. Some results are limits rather than exact numbers.

`O=c1[nH]c(NCc2ccc(F)c(F)c2)nc2c(Cl)nn(CCOCCO)c12` [Compound 309, 3-Chloro-5-[(3,4-difluorophenyl)methylamino]-1-[2-(2-hydroxyethoxy)ethyl]-6H-pyrazolo[4,3-d]pyrimidin-7-one]: the MIC (commonly the lowest concentration that inhibits growth of the organism) in assay [1] was 16 µg/mL (≈ 40 µM); in assay [2], 8 µg/mL (≈ 20 µM); in assay [3], 16 µg/mL (≈ 40 µM); in assay [4] it was above 64 µg/mL; in assay [5] (S. aureus NRS 384) it was 16 µg/mL (≈ 40 µM); in assay [6], 8 µg/mL (≈ 20 µM). Besides, the MIC in assay [7] is 32 µg/mL (≈ 80 µM). For the same molecule, the “MIC E. coli ATCC 25922 + 4 mM EDTA” value in assay [4] is above 64 µg/mL.
As to `O=c1[nH]c(NCc2ccc(Cl)c(Cl)c2)nc2cnn(CCOC3CCOCC3)c12` [Compound 108, 5-((3,4-Dichlorobenzyl)amino)-1-(2-((tetrahydro-2H-pyran-4-yl)oxy)ethyl)-1H-pyrazolo[4,3-d]pyrimidin-7(6H)-one], the “MIC E. faecium ATCC 700221 (VRE)” value in assay [1] is 4/2. Besides, the minimum inhibitory concentration (MIC) in assay [2] was 2 µg/mL (≈ 4.56 µM); in assay [3] it was 4 µg/mL (≈ 9.13 µM); in assay [4], above 64 µg/mL; in assay [6], 4 µg/mL (≈ 9.13 µM); in assay [7], 8 µg/mL (≈ 18.3 µM). Further, the “MIC E. coli ATCC 25922 + 4 mM EDTA” value in assay [4] was above 64 µg/mL. For the same molecule, the “MIC NRS 384 (MRSA)” value in assay [5] was 8/4.
For the molecule `Cn1ncc2nc(NCc3ccc(Cl)cc3Cl)[nH]c(=O)c21` [Compound 28, 5-((2,4-Dichlorobenzyl)amino)-1-methyl-1H-pyrazolo[4,3-d]pyrimidin-7(6H)-one], the MIC in assay [1] is 16 µg/mL (≈ 49.4 µM); in assay [2], 64 µg/mL (≈ 197 µM); in assay [3] it was above 64 µg/mL; in assay [4], above 64 µg/mL; in assay [5], above 64 µg/mL; in assay [6] it was 64 µg/mL (≈ 197 µM). Also, the MIC in assay [7] was above 64 µg/mL. For the same molecule, the “MIC E. coli ATCC 25922 + 4 mM EDTA” value in assay [4] turned out to be 64 µg/mL.
As for `Cn1ncc2nc(NCc3nc(Cl)c(Cl)[nH]3)[nH]c(=O)c21` [Compound 37, 5-(((4,5-Dichloro-1H-imidazol-2-yl)methyl)amino)-1-methyl-1H-pyrazolo[4,3-d]pyrimidin-7(6H)-one], the MIC in assay [1], in assay [2], in assay [3], in assay [4], in assay [5] and in assay [6] was above 64 µg/mL each time. In assay [7], the minimum inhibitory concentration (MIC) is above 64 µg/mL. Further, the “MIC E. coli ATCC 25922 + 4 mM EDTA” value in assay [4] is above 64 µg/mL.
For the molecule `[2H]C([2H])(O)COCCn1ncc2nc(NCc3ccc(Cl)c(Cl)c3)[nH]c(=O)c21` [Compound 286, 5-[(3,4-dichlorophenyl)methylamino]-1-[2-(2,2-dideuterio-2-hydroxyl-ethoxy)ethyl]-6H-pyrazolo[4,3-d]pyrimidin-7-one], the minimum inhibitory concentration (MIC) in assay [1] was 2 µg/mL (≈ 5 µM); in assay [2], 4 µg/mL (≈ 9.99 µM); in assay [3] it was 8 µg/mL (≈ 20 µM); in assay [4], above 64 µg/mL; in assay [5] it was 8 µg/mL (≈ 20 µM); in assay [6] it was 4 µg/mL (≈ 9.99 µM). Besides, the MIC in assay [7] amounted to 4 µg/mL (≈ 9.99 µM). Further, the “MIC E. coli ATCC 25922 + 4 mM EDTA” value in assay [4] is above 64 µg/mL.
For `COCC(CN(C)C)OCCn1ncc2nc(NCc3ccc(Cl)c(Cl)c3)[nH]c(=O)c21.Cl` (stereo not drawn) [Compound 183, 5-((3,4-dichlorobenzyl)amino)-1-(2-((1-(dimethylamino)-3-methoxypropan-2-yl)oxy)ethyl)-1H-pyrazolo[4,3-d]pyrimidin-7(6H)-one hydrochloride], the minimal inhibitory concentration (MIC) in assay [1] was 32 µg/mL; in assay [2], 8 µg/mL; in assay [3], 64 µg/mL; in assay [4], above 64 µg/mL; in assay [5], 64 µg/mL; in assay [6], 8 µg/mL. Also, the MIC in assay [7] came to 32 µg/mL. Moreover, in assay [4], the “MIC E. coli ATCC 25922 + 4 mM EDTA” value was above 64 µg/mL.
For `Cl.NCCOCCn1ncc2nc(NCc3ccc(Cl)c(Cl)c3)[nH]c(=O)c21` [Compound 99, 1-(2-(2-aminoethoxy)ethyl)-5-((3,4-dichlorobenzyl)amino)-1H-pyrazolo[4,3-d]pyrimidin-7(6H)-one hydrochloride], the MIC in assay [1] was 32 µg/mL; in assay [2], 2 µg/mL; in assay [3] it was 64 µg/mL; in assay [4] it was above 64 µg/mL; in assay [5], 64 µg/mL; in assay [6] it was 4 µg/mL. In addition, the minimum inhibitory concentration (MIC) in assay [7] is 32 µg/mL. Moreover, the “MIC E. coli ATCC 25922 + 4 mM EDTA” value in assay [4] was found to be 64 µg/mL.
In the case of `Cc1cc(CNc2nc3c(F)nn(CCOCCO)c3c(=O)[nH]2)ccc1F` [Compound 311, 3-Fluoro-5-((4-fluoro-3-methylbenzyl)amino)-1-(2-(2-hydroxyethoxy)ethyl)-1H-pyrazolo[4,3-d]pyrimidin-7(6H)-one], the MIC was 16 µg/mL (≈ 42.2 µM) in assay [1]; 8 µg/mL (≈ 21.1 µM) in assay [2]; 16 µg/mL (≈ 42.2 µM) in assay [3]; above 64 µg/mL in assay [4]; 16 µg/mL (≈ 42.2 µM) in assay [5] (S. aureus NRS 384); 32 µg/mL (≈ 84.4 µM) in assay [6]. Also, the MIC in assay [7] was 16 µg/mL (≈ 42.2 µM). Further, in assay [4], the “MIC E. coli ATCC 25922 + 4 mM EDTA” value is above 64 µg/mL.
As to `COCCCCCn1ncc2nc(NCc3ccc(Cl)c(Cl)c3)[nH]c(=O)c21` [Compound 131, 5-((3,4-Dichlorobenzyl)amino)-1-(5-methoxypentyl)-1H-pyrazolo[4,3-d]pyrimidin-7(6H)-one], the MIC in assay [1] was 2 µg/mL (≈ 4.87 µM); in assay [2], 1 µg/mL (≈ 2.44 µM); in assay [3], 2 µg/mL (≈ 4.87 µM); in assay [4], above 64 µg/mL; in assay [5], 2 µg/mL (≈ 4.87 µM); in assay [6], 4 µg/mL (≈ 9.75 µM). Besides, the MIC in assay [7] worked out at 4 µg/mL (≈ 9.75 µM). For the same molecule, in assay [4], the “MIC E. coli ATCC 25922 + 4 mM EDTA” value was above 64 µg/mL.
As to `Cl.O=c1[nH]c(NCc2ccc(Cl)c(Cl)c2)nc2cnn(Cn3cncn3)c12` [Compound 101, 1-((1H-1,2,4-triazol-1-yl)methyl)-5-((3,4-dichlorobenzyl)amino)-1H-pyrazolo[4,3-d]pyrimidin-7(6H)-one hydrochloride], the “MIC E. faecium ATCC 700221 (VRE)” value in assay [1] is recorded as 2/4. The minimal inhibitory concentration (MIC) in assay [2] is 2 µg/mL; in assay [3] it was 4 µg/mL; in assay [4], above 64 µg/mL; in assay [6], 4 µg/mL; in assay [7], 4 µg/mL. The “MIC E. coli ATCC 25922 + 4 mM EDTA” value in assay [4] is 64 µg/mL. The “MIC NRS 384 (MRSA)” value in assay [5] is reported as 8/8.
In the case of `Cn1ncc2nc(Nc3ccccc3)[nH]c(=O)c21` [Compound 10, 1-Methyl-5-(phenylamino)-1H-pyrazolo[4,3-d]pyrimidin-7(6H)-one], the MIC in assay [1], in assay [2], in assay [3], in assay [4], in assay [5] and in assay [6] was above 64 µg/mL throughout. In assay [7], the minimal inhibitory concentration (MIC) was above 64 µg/mL. For the same molecule, in assay [4], the “MIC E. coli ATCC 25922 + 4 mM EDTA” value was above 64 µg/mL.
With `O=C(c1nccs1)N1CCC(n2ncc3nc(NCc4ccc(Cl)c(Cl)c4)[nH]c(=O)c32)CC1` [Compound 254, 5-[(3,4-Dichlorophenyl)methylamino]-1-[1-(thiazole-2-carbonyl)-4-piperidyl]-6H-pyrazolo[4,3-d]pyrimidin-7-one], the minimum inhibitory concentration (MIC) in assay [1] was 2 µg/mL (≈ 3.97 µM); in assay [2], 1 µg/mL (≈ 1.98 µM); in assay [3], 2 µg/mL (≈ 3.97 µM); in assay [4], above 64 µg/mL; in assay [5] it was 2 µg/mL (≈ 3.97 µM); in assay [6], 4 µg/mL (≈ 7.93 µM). Also, the minimum inhibitory concentration (MIC) in assay [7] is 4 µg/mL (≈ 7.93 µM). The “MIC E. coli ATCC 25922 + 4 mM EDTA” value in assay [4] was above 64 µg/mL.
As for `O=C(O)CCCCn1nc(F)c2nc(NCc3ccc(Cl)c(Cl)c3)[nH]c(=O)c21` [Compound 209, 5-(5-((3,4-dichlorobenzyl)amino)-3-fluoro-7-oxo-6,7-dihydro-1H-pyrazolo[4,3-d]pyrimidin-1-yl)pentanoic acid], the MIC was 1 µg/mL (≈ 2.34 µM) in assay [1]; 4 µg/mL (≈ 9.34 µM) in assay [2]; 8 µg/mL (≈ 18.7 µM) in assay [3]; above 64 µg/mL in assay [4]; 16 µg/mL (≈ 37.4 µM) in assay [5]; 4 µg/mL (≈ 9.34 µM) in assay [6]. Further, in assay [7], the MIC turned out to be 4 µg/mL (≈ 9.34 µM). For the same molecule, the “MIC E. coli ATCC 25922 + 4 mM EDTA” value in assay [4] was above 64 µg/mL.
For `Cn1ncc2nc(NCc3cnccn3)[nH]c(=O)c21` [Compound 12, 1-Methyl-5-((pyrazin-2-ylmethyl)amino)-1H-pyrazolo[4,3-d]pyrimidin-7(6H)-one], the minimum inhibitory concentration (MIC) in assay [1], in assay [2], in assay [3], in assay [4], in assay [5] and in assay [6] was above 64 µg/mL in each case. Moreover, in assay [7], the MIC was above 64 µg/mL. For the same molecule, in assay [4], the “MIC E. coli ATCC 25922 + 4 mM EDTA” value is above 64 µg/mL.
As to `Cl.O=c1[nH]c(NCc2ccc(Cl)c(Cl)c2)nc2cnn(Cc3coc(C4CCCNC4)n3)c12` (stereo not drawn) [Compound 173, 5-((3,4-dichlorobenzyl)amino)-1-((2-(piperidin-3-yl)oxazol-4-yl)methyl)-1H-pyrazolo[4,3-d]pyrimidin-7(6H)-one hydrochloride], the MIC in assay [1] was 32 µg/mL; in assay [2], 8 µg/mL; in assay [3], 32 µg/mL; in assay [4], above 64 µg/mL; in assay [5], 32 µg/mL; in assay [6], 8 µg/mL. Also, the MIC in assay [7] was 32 µg/mL. For the same molecule, the “MIC E. coli ATCC 25922 + 4 mM EDTA” value in assay [4] worked out at 64 µg/mL.
